Experimental data: ChEMBL document CHEMBL4028806, “Modulators of Sphingosine-1-phosphate Pathway Biology: Recent Advances of Sphingosine-1-phosphate Receptor 1 (S1P1) Agonists and Future Perspectives” (J Med Chem, 2017)
One block for each compound: values may come before it.

What was measured:
Mus musculus [1] = test: Reduction in peripheral lymphocyte level in mouse administered iv measured 3 hrs post dose; type: functional
[2] = molecular target: T1, Sphingosine 1-phosphate receptor 1 (Homo sapiens, UniProt P21453); test: Displacement of [33P]-S1P from S1P1 receptor (unknown origin) expressed in CHO cell membranes
T1 sequence (P21453 whole entry): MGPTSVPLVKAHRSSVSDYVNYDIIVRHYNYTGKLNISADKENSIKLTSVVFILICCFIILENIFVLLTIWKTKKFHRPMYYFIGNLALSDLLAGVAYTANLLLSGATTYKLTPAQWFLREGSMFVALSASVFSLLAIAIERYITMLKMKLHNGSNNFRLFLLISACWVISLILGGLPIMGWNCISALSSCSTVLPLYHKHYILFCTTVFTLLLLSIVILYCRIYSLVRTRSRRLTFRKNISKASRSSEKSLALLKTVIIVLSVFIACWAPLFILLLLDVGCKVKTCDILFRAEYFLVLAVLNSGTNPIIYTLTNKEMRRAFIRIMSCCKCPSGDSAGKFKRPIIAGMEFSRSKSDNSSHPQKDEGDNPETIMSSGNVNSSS

[3] = molecular target: T2, Sphingosine 1-phosphate receptor 3 (Homo sapiens, UniProt Q99500); test: Displacement of [33P]-S1P from S1P3 receptor (unknown origin) expressed in CHO cell membranes
T2 sequence (Q99500 whole entry): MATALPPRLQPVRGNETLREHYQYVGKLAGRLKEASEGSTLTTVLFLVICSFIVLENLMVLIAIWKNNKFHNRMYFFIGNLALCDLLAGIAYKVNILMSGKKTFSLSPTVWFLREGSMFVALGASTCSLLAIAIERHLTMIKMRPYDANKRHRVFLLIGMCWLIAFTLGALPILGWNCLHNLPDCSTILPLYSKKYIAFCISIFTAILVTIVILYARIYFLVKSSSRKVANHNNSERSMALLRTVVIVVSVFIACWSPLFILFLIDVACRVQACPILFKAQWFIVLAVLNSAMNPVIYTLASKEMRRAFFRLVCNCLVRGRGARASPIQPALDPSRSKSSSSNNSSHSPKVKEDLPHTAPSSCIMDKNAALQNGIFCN

[4] = Half life in iv dosed Sprague-Dawley rat; type: ADME, organism-based; settings: in vivo
[5] = Half life in po dosed Sprague-Dawley rat; type: ADME, organism-based; settings: in vivo
Trachea [6] = test: Induction of tracheal constriction in Wistar rat at 1 uM
Trachea [7] = test: Induction of tracheal constriction in Wistar rat at 10 uM
Mus musculus [8] = test: Reduction in peripheral lymphocyte level in Swiss mouse at 10 mg/kg, po measured 24 hrs post dose; type: functional; design: scale not given: the % may be the effect or the level left
Rattus norvegicus = test: Reduction in peripheral lymphocyte level in rat at 10 mg/kg, po measured 6 hrs post dose; type: functional; design: scale not given: the % may be the effect or the level left
[9] = molecular target: T1, Sphingosine 1-phosphate receptor 1; test: Displacement of [33P]-S1P from human S1P1 receptor expressed in CHO cell membranes
[10] = molecular target: T2, Sphingosine 1-phosphate receptor 3; test: Displacement of [33P]-S1P from human S1P3 receptor expressed in CHO cell membranes
Mus musculus [11] = test: Immunosuppressive activity in BALB/c mouse assessed as reduction in peripheral blood lymphocytes at 30 mg/kg, ip measured 4 days post dose; type: functional; design: scale not given: the % may be the effect or the level left
[12] = molecular target: T2, Sphingosine 1-phosphate receptor 3; test: Displacement of [33P]-S1P from S1P3 receptor (unknown origin) expressed in CHOK1 cells after 60 mins by microbeta scintillation proximity assay; type: cell-based
[13] = molecular target: T1, Sphingosine 1-phosphate receptor 1; test: Displacement of [33P]-S1P from S1P1 receptor (unknown origin) expressed in CHOK1 cells after 60 mins by microbeta scintillation proximity assay; type: cell-based
[14] = molecular target: T2, Sphingosine 1-phosphate receptor 3; test: Agonist activity at human S1P3 receptor expressed in CHO cell membranes after 45 mins by [35S] GTPgammaS binding based scintillation counting analysis; type: functional
[15] = molecular target: T1, Sphingosine 1-phosphate receptor 1; test: Agonist activity at human S1P1 receptor expressed in CHO cell membranes after 45 mins by [35S] GTPgammaS binding based scintillation counting analysis; type: functional
[16] = Oral bioavailability in mouse; type: ADME, organism-based; settings: in vivo
Mus musculus [17] = test: Reduction in peripheral lymphocyte level in mouse administered po measured 3 hrs post dose; type: functional
Homo sapiens [18] = species on record: Homo sapiens; test: Toxicity in human assessed as reduction in heart rate measured every day for 9 days; settings: 216 h
Homo sapiens [19] = species on record: Homo sapiens; test: Toxicity in human assessed as reduction in heart rate at 1.25 mg measured for 2 days; settings: in vivo, 48 h
Homo sapiens [20] = species on record: Homo sapiens; test: Toxicity in human assessed as reduction in heart rate at 10 mg measured on day 1; settings: in vivo
Homo sapiens [21] = species on record: Homo sapiens; test: Toxicity in human assessed as reduction in heart rate at 10 mg measured 2 hrs post dose; settings: in vivo

- IC50 [2]: 6 nM
- IC50 [3]: 7 nM
SMILES: CCCCCCCCc1ccc(CCC(N)(CO)CCP(=O)(O)O)cc1 (centres undefined)
- ED50 (Mus musculus [1]): 2.35 mg/kg

- half-life [4]: 540 min
- half-life [5]: 660 min
SMILES: CC(C)Cc1ccc(-c2nc(-c3ccc(CN4CC(C(=O)O)C4)cc3)no2)cc1

- IC50 [9]: 7.7 nM
- IC50 [10]: 1200 nM
SMILES: CCCCCCCCc1ccc(CNCCCC(=O)O)cc1

- IC50 [9]: 12 nM
- IC50 [10]: 100 nM
SMILES: CCCCCCCCc1ccc(CNCCCP(C)(=O)O)cc1

- IC50 [9]: 18 nM
- bioavailability [16]: > 70%
- IC50 [10]: 4900 nM
SMILES: CCCCCCCCc1ccc(CN2CC(C(=O)O)C2)cc1
- ED50 (Mus musculus [17]): 5.2 mg/kg

- IC50 [9]: 8.4 nM
- IC50 [10]: 280 nM
SMILES: CCCCCCCCc1ccc(CC[C@@H](N)CCP(=O)(O)O)cc1

- half-life [4]: 330 min
- half-life [5]: 330 min
SMILES: CC(C)Cc1ccc(-c2nc(-c3ccc(CN4CC(C(=O)O)C4)c(F)c3)no2)cc1 [ICANBELIMOD]

Second part, the compound before the results:

SMILES: CCCCCCCCc1ccc(CC[C@@H](N)C[C@H](O)P(=O)(O)O)cc1
- ED50 (Mus musculus [1]): 0.15 mg/kg

SMILES: CCc1cc(-c2noc(-c3cc(CC(C)C)nc(OC)c3)n2)cc(C)c1OC[C@@H](O)CNC(=O)CO
- Activity (Trachea [6]): 133%

SMILES: CCc1cc(-c2noc(-c3cc(OC)nc(C(CC)CC)c3)n2)cc(C)c1OC[C@@H](O)CNC(=O)CO
- Activity (Trachea [6]): < 5%
- Activity (Trachea [7]): 100%

SMILES: O=C(O)C1(C(=O)O)CC(NCc2ccc(-c3noc(-c4ccc(-c5ccccc5)c(F)c4)n3)cc2)C1
- Activity (Mus musculus [8]): 86%

SMILES: CCc1cc(-c2noc(-c3cc(OC)nc(C(CC)CC)c3)n2)cc(C)c1OC[C@@H](O)CO
- Activity (Trachea [6]): < 5%
- Activity (Trachea [7]): 24%

SMILES: CCc1cc(-c2nnc(-c3sc(C)c4c3C[C@@H]3[C@H]4C3(C)C)o2)cc(C)n1
- Activity (Rattus norvegicus): 77%

SMILES: CCCCCCCCc1ccc2c(c1)CC(N)(CO)CC2 (centres undefined)
- Activity (Mus musculus [11]): 64%

SMILES: COCc1cc(-c2nc(-c3cccc(OCC(=O)O)c3)no2)ccc1-c1ccccc1C
- Ki [12]: 1040 nM
- Ki [13]: 0.8 nM

SMILES: CCc1cc(-c2noc(-c3cc(CC(C)C)nc(OC)c3)n2)cc(C)c1OC[C@@H](O)CO
- Activity (Trachea [6]): < 5%
- Activity (Trachea [7]): 124%

SMILES: N#CC1(NC(=O)[C@@H](O)c2ccc(-c3noc(-c4onc(-c5ccccc5)c4C(F)(F)F)n3)cc2)CC1
- EC50 [14]: > 31 µM
- EC50 [15]: 15 nM

SMILES: COCc1cc(-c2nc(-c3ccc(-c4ccc(C(=O)O)c(F)c4)cc3)no2)ccc1-c1ccccc1C
- Ki [12]: 2200 nM
- Ki [13]: 2.9 nM

SMILES: CCCCCCCCc1ccc(CCC(N)COP(=O)(O)O)cc1 (centres undefined)
- ED50 (Mus musculus [1]): 0.06 mg/kg

SMILES: CCCCCCCCc1ccc(CCC(N)(CO)CO)cc1 [FINGOLIMOD]
- Activity (Homo sapiens [18]): 1 to 2 bpm
- Activity (Homo sapiens [19]): 8 to 11 bpm

SMILES: CCC/N=C1\S/C(=C\c2ccc(OC[C@H](O)CO)c(Cl)c2)C(=O)N1c1ccccc1C [PONESIMOD]
- Activity (Homo sapiens [20]): 10 to 12 bpm

SMILES: CCc1cc(/C(C)=N/OCc2ccc(C3CCCCC3)c(C(F)(F)F)c2)ccc1CN1CC(C(=O)O)C1 [SIPONIMOD]
- Activity (Homo sapiens [21]): 16 bpm
